Here are results for 28 molecules from US20120101134A1, “5-MEMBERED HETEROARYL DERIVATIVES USED AS SPHINGOSINE 1-PHOSPHATE RECEPTOR AGONISTS” (GLAXO GROUP LIMITED, priority 2009, published 2012).

Some results are limits rather than exact numbers.

In the assay the target is T1, human Endothelial Differentiation Gene 1 (EDG1) (Homo sapiens, UniProt P21453).
T1 construct: TEV protease site; Gal4-VP16 transcription factor; expressed in transfected cells; host or cells: EDG1-bla/U2OS (Tango GPCR-bla U2OS parental cell line)
T1 sequence (P21453 whole entry, the tested form may be a part): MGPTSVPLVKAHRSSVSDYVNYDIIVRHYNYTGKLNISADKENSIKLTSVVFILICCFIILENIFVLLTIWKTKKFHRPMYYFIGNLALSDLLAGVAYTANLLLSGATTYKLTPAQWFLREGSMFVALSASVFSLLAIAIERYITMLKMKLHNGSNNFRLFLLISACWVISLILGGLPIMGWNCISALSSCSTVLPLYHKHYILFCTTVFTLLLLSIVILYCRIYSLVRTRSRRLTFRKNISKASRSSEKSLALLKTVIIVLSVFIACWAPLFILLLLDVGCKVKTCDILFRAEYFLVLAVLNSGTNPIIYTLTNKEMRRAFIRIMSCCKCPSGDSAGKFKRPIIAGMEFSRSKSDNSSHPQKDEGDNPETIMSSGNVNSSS
The assay can be described thus: S1P1 Tango assay - 384 well format. The conditions noted are these: EDG1-bla/U2OS cells, agonist. It counts as cell-based. How it is done: S1P1 Tango assay—384 Well Format
Recombinant EDG1-bla/U2OS cells (contain the human Endothelial Differentiation Gene 1 (EDG1) linked to a TEV protease site and a Gal4-VP16 transcription factor stably integrated into the Tango GPCR-bla U2OS parental cell line) were harvested from growth medium and passaged into assay medium (Invitrogen Freestyle Expression Medium). The cells were starved for 24 hours at 37° C., 5% CO2, harvested and resuspended in assay medium at a density of ˜200,000 cells/ml. All test compounds were dissolved in DMSO at a concentration of 10 mM and were prepared in 100% DMSO to provide 10 point dose response curves. Test compounds prepared by Bravo (Velocity11) were added to wells in columns 2-11 and 13-22; DMSO was added to wells in columns 12 and 23 as unstimulated controls and assay medium was added to wells in columns 1 and 24 as cell-free controls. An S1P1 agonist was added to wells in row 2, columns 2-11 as stimulated controls and test compounds were added to wells in row 2, columns 13-22 and rows 3-15, columns 2-11/13-22 (row 1 and 16 were empty and not used). Compounds in solution were added to the assay plate (Greiner 781090) using an Echo (Labcyte) dose-response program (50 nl/well). The unstimulated and cell-free controls were loaded with 50 nl/well pure DMSO to ensure that the DMSO concentration was constant across the plate for all assays.
50 μl of the cell suspension was added to each well in columns 2-23 of the plate (˜10,000 cells per well). 50 μl of assay medium was added to each well in the cell-free controls (columns 1 and 24). The cells were incubated overnight at 37° C./5% CO2.
10 μl of 6× substrate mixture (LiveBLAzer™-FRET B/G substrate (CCF4-AM) Cat #K1096 from Invitrogen, Inc.) was added to each well using Bravo and the plates incubated at room temperature for 2 h in the dark. The plate was finally read on EnVision using one excitation channel (409 nm) and two emission channels (460 nm and 530 nm).
The blue/green emission ratio (460 nm/530 nm) was calculated for each well, by dividing the background-subtracted Blue emission values by the background-subtracted Green emission values. The dose response curve is based on sigmoidal dose-response model. All ratio data was normalized based upon the maximum emission ratio of positive control and minimum emission ratio of negative control (DMSO) on each plate. The intrinsic activity (IA) of each compound would be the normalized percentage of its maximum response after curve fitting.
Usually EC50 stands for the concentration that produces a half-maximal response. Higher therefore signals a less potent agent. `COc1c(CCC(=O)O)cc(F)cc1-c1noc(-c2ccc(OC(C)C)c(C#N)c2)n1` [Example 30, 3-[3-(5-{3-cyano-4-[(1-methylethyl)oxy]phenyl}-1,2,4-oxadiazol-3-yl)-5-fluoro-2-(methyloxy)phenyl]propanoic acid] showed a concentration for a half-maximal effect (EC50) of no more than 1 nM.
The same measure for `COc1c(CCCC(=O)O)cccc1-c1noc(-c2ccc(OC(C)C)c(Cl)c2)n1` [Example 17, 4-[3-(5-{3-chloro-4-[(1-methylethyl)oxy]phenyl}-1,2,4-oxadiazol-3-yl)-2-(methyloxy)phenyl]butanoic acid]: no more than 1 nM; for `COc1c(CCCC(=O)O)cc(F)cc1-c1noc(-c2ccc(OC(C)C)c(Cl)c2)n1` [Example 35, 4-[3-(5-{3-chloro-4-[(1-methylethyl)oxy]phenyl}-1,2,4-oxadiazol-3-yl)-5-fluoro-2-(methyloxy)phenyl]butanoic acid]: no more than 1 nM; for `CCCc1c(CCCC(=O)O)cccc1-c1noc(-c2ccc(OC(C)C)c(C#N)c2)n1` [Example 37, 4-[3-(5-{3-cyano-4-[(1-methylethyl)oxy]phenyl}-1,2,4-oxadiazol-3-yl)-2-propylphenyl]butanoic acid]: no more than 10 nM.
The same measure for `CCc1c(CCCC(=O)O)cccc1-c1noc(-c2cnc(OC(C)C)c(Cl)c2)n1` [Example 14, 4-[3-(5-{5-chloro-6-[(1-methylethyl)oxy]-3-pyridinyl}-1,2,4-oxadiazol-3-yl)-2-ethylphenyl]butanoic acid]: no more than 10 nM; for `CC(C)Oc1ccc(-c2nc(-c3cccc(CCC(=O)O)c3C(F)(F)F)no2)cc1C#N` [Example 24, 3-[3-(5-{3-cyano-4-[(1-methylethyl)oxy]phenyl}-1,2,4-oxadiazol-3-yl)-2-(trifluoromethyl)phenyl]propanoic acid]: no more than 10 nM.
In the case of `COc1c(CCCC(=O)O)cc(F)cc1-c1noc(-c2ccc(OC(C)C)c(C#N)c2)n1` [Example 31, 4-[3-(5-{3-cyano-4-[(1-methylethyl)oxy]phenyl}-1,2,4-oxadiazol-3-yl)-5-fluoro-2-(methyloxy)phenyl]butanoic acid] it was no more than 1 nM.
In turn, `CC(C)Oc1ccc(-c2nc(-c3cccc(CCCCCC(=O)O)c3Cl)no2)cc1C#N` [Example 12, 6-[2-chloro-3-(5-{3-cyano-4-[(1-methylethyl)oxy]phenyl}-1,2,4-oxadiazol-3-yl)phenyl]hexanoic acid] gave an EC50 of no more than 1 nM.
`CCc1c(CN(C)CCC(=O)O)cccc1-c1cnc(-c2ccc(OC(C)C)c(C#N)c2)s1` [Example 57, N-{[3-(2-{3-cyano-4-[(1-methylethyl)oxy]phenyl}-1,3-thiazol-5-yl)-2-ethylphenyl]methyl}-N-methyl-β-alanine] showed an EC50 of no more than 100 nM.
In the case of `CCc1c(CNCCC(=O)O)cccc1-c1nsc(-c2ccc(OC(C)C)c(C#N)c2)n1` [Example 48, N-{[3-(5-{3-cyano-4-[(1-methylethyl)oxy]phenyl}-1,2,4-thiadiazol-3-yl)-2-ethylphenyl]methyl}-b-alanine] it was no more than 10 nM; in that of `COc1c(CCCC(=O)O)cc(F)cc1-c1cnc(-c2ccc(OC(C)C)c(C#N)c2)s1` [Example 51, 4-[3-(2-{3-cyano-4-[(1-methylethyl)oxy]phenyl}-1,3-thiazol-5-yl)-5-fluoro-2-(methyloxy)phenyl]butanoic acid], no more than 10 nM.
Molecule `CCc1c(CCCC(=O)O)cccc1-c1cnc(-c2ccc(OC(C)C)c(Cl)c2)s1` [Example 52, 4-[3-(2-{3-chloro-4-[(1-methylethyl)oxy]phenyl}-1,3-thiazol-5-yl)-2-ethylphenyl]butanoic acid] gave an EC50 of no more than 10 nM.
The same measure for `CC(C)Oc1ccc(-c2nc(-c3ccnc(CCC(=O)O)c3)no2)cc1C#N` [Example 20, 3-[4-(5-{3-cyano-4-[(1-methylethyl)oxy]phenyl}-1,2,4-oxadiazol-3-yl)-2-pyridinyl]propanoic acid]: no more than 1000 nM; for `COc1c(CCC(=O)O)cc(F)cc1-c1noc(-c2ccc(OC(C)C)c(Cl)c2)n1` [Example 34, 3-[3-(5-{3-chloro-4-[(1-methylethyl)oxy]phenyl}-1,2,4-oxadiazol-3-yl)-5-fluoro-2-(methyloxy)phenyl]propanoic acid]: no more than 10 nM.
In the case of `CCc1c(CN(C)CC(=O)O)cccc1-c1cnc(-c2ccc(OC(C)C)c(C#N)c2)s1` [Example 55, N-{[3-(2-{3-cyano-4-[(1-methylethyl)oxy]phenyl}-1,3-thiazol-5-yl)-2-ethylphenyl]methyl}-N-methylglycine] it was no more than 100 nM; in that of `CC(C)Oc1ncc(-c2nc(-c3cccc(CCC(=O)O)c3Cl)no2)cc1Cl` [Example 8, 3-[2-chloro-3-(5-{5-chloro-6-[(1-methylethyl)oxy]-3-pyridinyl}-1,2,4-oxadiazol-3-yl)phenyl]propanoic acid], no more than 10 nM.
In the case of `CCc1c(-c2cnc(-c3ccc(OC(C)C)c(C#N)c3)s2)ccnc1CCCC(=O)O` [Example 58, 4-[4-(2-{3-cyano-4-[(1-methylethyl)oxy]phenyl}-1,3-thiazol-5-yl)-3-ethyl-2-pyridinyl]butanoic acid] it was no more than 1000 nM.
`CCCc1c(CCCC(=O)O)cccc1-c1noc(-c2ccc(OC(C)C)c(Cl)c2)n1` [Example 36, 4-[3-(5-{3-chloro-4-[(1-methylethyl)oxy]phenyl}-1,2,4-oxadiazol-3-yl)-2-propylphenyl]butanoic acid] had an EC50 of no more than 10 nM.
`CCc1c(OCCCC(=O)O)cccc1-c1noc(-c2ccc(OC(C)C)c(C#N)c2)n1` [Example 38, 4-{[3-(5-{3-cyano-4-[(1-methylethyl)oxy]phenyl}-1,2,4-oxadiazol-3-yl)-2-ethylphenyl]oxy}butanoic acid] showed an EC50 of no more than 10 nM.
With `CCc1c(CCN(C)CC(=O)O)cccc1-c1nsc(-c2ccc(OC(C)C)c(Cl)c2)n1` [Example 49, N-{2-[3-(5-{3-chloro-4-[(1-methylethyl)oxy]phenyl}-1,2,4-thiadiazol-3-yl)-2-ethylphenyl]ethyl}-N-methylglycine], the EC50 is no more than 1 nM.
In the case of `CCc1c(CCN(C)CCC(=O)O)cccc1-c1cnc(-c2ccc(OC(C)C)c(C#N)c2)s1` [Example 59, N-{2-[3-(2-{3-cyano-4-[(1-methylethyl)oxy]phenyl}-1,3-thiazol-5-yl)-2-ethylphenyl]ethyl}-N-methyl-b-alanine] it was no more than 1 nM; in that of `CCc1c(OCC(=O)O)cccc1-c1noc(-c2ccc(OC(C)C)c(C#N)c2)n1` [Example 40, {[3-(5-{3-cyano-4-[(1-methylethyl)oxy]phenyl}-1,2,4-oxadiazol-3-yl)-2-ethylphenyl]oxy}acetic acid], no more than 10 nM; in that of `CCc1c(OCCCC(=O)O)cccc1-c1noc(-c2ccc(OC(C)C)c(Cl)c2)n1` [Example 39, 4-{[3-(5-{3-chloro-4-[(1-methylethyl)oxy]phenyl}-1,2,4-oxadiazol-3-yl)-2-ethylphenyl]oxy}butanoic acid], no more than 1 nM.
As for `Cc1c(-c2noc(-c3ccc(OC(C)C)c(Cl)c3)n2)ccnc1CCCC(=O)O` [Example 7, 4-[4-(5-{3-chloro-4-[(1-methylethyl)oxy]phenyl}-1,2,4-oxadiazol-3-yl)-3-methyl-2-pyridinyl]butanoic acid], the EC50 is no more than 10 nM.
Turning to `CCc1c(CCCC(=O)O)cccc1-c1nnc(-c2ccc(OC(C)C)c(C#N)c2)o1` [Example 41, 4-[3-(5-{3-cyano-4-[(1-methylethyl)oxy]phenyl}-1,3,4-oxadiazol-2-yl)-2-ethylphenyl]butanoic acid], the EC50 is no more than 10 nM.
As for `CCc1c(CCCC(=O)O)cccc1-c1cnc(-c2ccc(OC(C)C)c(C#N)c2)s1` [Example 50, 4-[3-(2-{3-cyano-4-[(1-methylethyl)oxy]phenyl}-1,3-thiazol-5-yl)-2-ethylphenyl]butanoic acid], the EC50 is no more than 10 nM.
In the case of `COc1c(CCCC(=O)O)cc(F)cc1-c1noc(-c2cnc(OC(C)C)c(Cl)c2)n1` [Example 32, 4-[3-(5-{5-chloro-6-[(1-methylethyl)oxy]-3-pyridinyl}-1,2,4-oxadiazol-3-yl)-5-fluoro-2-(methyloxy)phenyl]butanoic acid] it was no more than 10 nM; in that of `CCc1c(CCN(C)CC(=O)O)cccc1-c1cnc(-c2ccc(OC(C)C)c(C#N)c2)s1` [Example 53, N-{2-[3-(2-{3-cyano-4-[(1-methylethyl)oxy]phenyl}-1,3-thiazol-5-yl)-2-ethylphenyl]ethyl}-N-methylglycine], no more than 10 nM.
